The conditions of data set [1]: rats, cited from earlier work.
Data set [2] has as its target T1, F1F0 ATP hydrolase (Bos taurus, UniProt P00829+P19483).
T1 construct: in NADH-linked and NADPH-linked sub-mitochondrial (SMP) assays respectively; host or cells: sub-mitochondrial particles (SMPs)
The data set can be described thus: NADH-linked sub-mitochondrial (SMP) assay of F1F0 ATP hydrolysis. It counts as biochemical, bovine. The following applies: NADH-linked and NADPH-linked SMP assays [5-6]. The source says:
For example, by separately assaying (in space and/or time) the compounds's effect upon ATP synthesis and ATP hydrolysis by ATP synthase (in its entirety or, less preferably, a component part of it). Then comparing these assay results. The greater the inhibition of reverse vs. forward mode, the more preferred this compound is for anti-cancer use. A further method is by screening/seeking compounds that inhibit ATP hydrolysis more than synthesis in submitochondrial particles (SMPs). ATP hydrolysis can be assayed by (non-limiting example) a spectroscopic assay for NADH fluorescence that incubates the SMPs with pyruvate kinase and lactate dehydrogenase enzymes (assay well-known to those of the art). ATP synthesis can be assayed by (non-limiting example) a spectroscopic assay for NADPH fluorescence that incubates the SMPs with hexokinase and glucose-6-phosphate dehydrogenase enzymes (assay well-known to those of the art). These assays are reported in any one of [5, 7, 8, 11, 12, 13, 36], and/or as referenced therein, all of which are herein incorporated in their entirety.
Compounds from, selected as specific anti-cancer therapeutics by the invention of this disclosure, selected because they inhibit the reverse, more than the forward, mode of ATP synthase. EC50 and IC50 used interchangeably. […]

In data set [3] the target is T1, F1F0 ATP hydrolase. The conditions noted are these: Best Mode structure, SMP assay [5-6]; read-out: EC50 against F1F0ATP hydrolysis; cited from earlier work.

SMILES strings stand for the structures.

Take `N#Cc1cccc(C(=O)/N=C(\Nc2ccc(Cl)cc2)N[C@H](Cn2ccnc2)c2ccc(Cl)cc2Cl)c1`: in data set [1], the Cmax – broadly, the peak of the concentration-time curve – is 21 µM and the volume of distribution was 2.37 L/kg. Moreover, the half-life in blood in data set [1] (intravenously applied drug) was 2.1 h. In addition, the orally bioavailable in data set [1] (polyethyleneglycol:water:ethanol, 1:1:1) is 47%. For the same molecule, the “[EC50 F1F0 ATP synthesis/EC50 F1F0 ATP hydrolysis] ratio” value on F1F0 ATP hydrolase [2] is > 5,556. Also, the EC50 (in general, the concentration needed to bring the measured effect to its halfway point) at F1F0 ATP hydrolase [3] is 18 nM.

The record behind these values is patent US12410143B2, “Therapeutic inhibitors of the reverse mode of ATP synthase” (priority 2017, dated 2025).
